Data published in PubChem BioAssay AID1259407 (Chemical Carcinogenesis Research Information System (CCRIS), 2018).
Calls of active or inactive are those of the source. No rule for the calls is given here.

System: CCRIS mutagenicity, Ames/micronucleus/aberration tests
Experiment: CCRIS mutagenicity studies
[1] = Test System: AMES SALMONELLA TYPHIMURIUM, Strain/Indicator: TA100, Metabolic Activation: NONE, Method: STANDARD PLATE

For Nc1cc([N+](=O)[O-])c(C(=O)O)c([N+](=O)[O-])c1, the mutagenic call (End Point: In vitro chromosomal aberrations, Test System: V79 Chinese hamster fibroblasts, Metabolic Activation: None) was “inactive; negative”, the mutagenic call (End Point: In vitro micronucleus, Test System: HepG2 human hepatoma cells, Metabolic Activation: None) was “active; positive” and the mutagenic call (Test System: Ames Salmonella typhimurium, Strain/Indicator: TA98, Metabolic Activation: None, Method: Standard plate) was “active; positive”. For the same molecule, the mutagenic call (Test System: Ames Salmonella typhimurium, Strain/Indicator: TA98, Metabolic Activation: Rat, Liver, S-9, Method: Standard plate) was “active; positive”, the mutagenic call (Test System: Ames Salmonella typhimurium, Strain/Indicator: TA98NR, Metabolic Activation: None, Method: Standard plate) was “active; positive, ta98nr is the nitroreductase-deficient derivative of ta98” and the mutagenic call (Test System: Ames Salmonella typhimurium, Strain/Indicator: TA100, Metabolic Activation: None, Method: Standard plate) was “active; positive”. For the same molecule, the mutagenic call (Test System: Ames Salmonella typhimurium, Strain/Indicator: TA100, Metabolic Activation: Rat, Liver, S-9, Method: Standard plate) was “active; positive”.

In the case of O=C1c2cccc3ccc4ccc5cccc1c5c4c23, the mutagenic call (Test System: AMES SALMONELLA TYPHIMURIUM, Strain/Indicator: TA98, Metabolic Activation: NONE, Method: STANDARD PLATE) is reported as “inactive; negative” and the mutagenic call [1] is reported as “inactive; negative”.

For CCOc1ccc(NC(C)=O)cc1N, the mutagenic call (Test System: AMES SALMONELLA TYPHIMURIUM, Strain/Indicator: TA98, Metabolic Activation: HAMSTER, LIVER, S-9, AROCLOR 1254, Method: STANDARD PLATE) was “active; positive”, the mutagenic call (Test System: AMES SALMONELLA TYPHIMURIUM, Strain/Indicator: TA98, Metabolic Activation: HAMSTER, LIVER, S-9, Method: STANDARD PLATE) was “active; positive” and the mutagenic call (Test System: AMES SALMONELLA TYPHIMURIUM, Strain/Indicator: TA98, Metabolic Activation: MOUSE, LIVER, S-9, AROCLOR 1254, Method: STANDARD PLATE) was “active; positive”. For the same molecule, the mutagenic call (Test System: AMES SALMONELLA TYPHIMURIUM, Strain/Indicator: TA98, Metabolic Activation: MOUSE, LIVER, S-9, Method: STANDARD PLATE) was “active; positive”, the mutagenic call (Test System: AMES SALMONELLA TYPHIMURIUM, Strain/Indicator: TA98, Metabolic Activation: RAT, LIVER, S-9, AROCLOR 1254, Method: STANDARD PLATE) was “active; positive” and the mutagenic call (Test System: AMES SALMONELLA TYPHIMURIUM, Strain/Indicator: TA98, Metabolic Activation: RAT, LIVER, S-9, Method: STANDARD PLATE) was “active; positive”. The mutagenic call (Test System: AMES SALMONELLA TYPHIMURIUM, Strain/Indicator: TA100, Metabolic Activation: HAMSTER, LIVER, S-9, AROCLOR 1254, Method: STANDARD PLATE) was “active; positive”, the mutagenic call (Test System: AMES SALMONELLA TYPHIMURIUM, Strain/Indicator: TA100, Metabolic Activation: MOUSE, LIVER, S-9, AROCLOR 1254, Method: STANDARD PLATE) was “inactive; negative” and the mutagenic call (Test System: AMES SALMONELLA TYPHIMURIUM, Strain/Indicator: TA100, Metabolic Activation: MOUSE, LIVER, S-9, Method: STANDARD PLATE) was “inactive; negative”. The mutagenic call [1] was “inactive; negative”, the mutagenic call (Test System: AMES SALMONELLA TYPHIMURIUM, Strain/Indicator: TA100, Metabolic Activation: RAT, LIVER, S-9, Method: STANDARD PLATE) was “inactive; negative” and the mutagenic call (Test System: AMES SALMONELLA TYPHIMURIUM, Strain/Indicator: TA1535, Metabolic Activation: HAMSTER, LIVER, S-9, AROCLOR 1254, Method: STANDARD PLATE) was “inactive; negative”. For the same molecule, the mutagenic call (Test System: AMES SALMONELLA TYPHIMURIUM, Strain/Indicator: TA1535, Metabolic Activation: HAMSTER, LIVER, S-9, Method: STANDARD PLATE) was “inactive; negative”, the mutagenic call (Test System: AMES SALMONELLA TYPHIMURIUM, Strain/Indicator: TA1535, Metabolic Activation: MOUSE, LIVER, S-9, AROCLOR 1254, Method: STANDARD PLATE) was “inactive; negative” and the mutagenic call (Test System: AMES SALMONELLA TYPHIMURIUM, Strain/Indicator: TA1535, Metabolic Activation: MOUSE, LIVER, S-9, Method: STANDARD PLATE) was “inactive; negative”. The mutagenic call (Test System: AMES SALMONELLA TYPHIMURIUM, Strain/Indicator: TA1535, Metabolic Activation: NONE, Method: STANDARD PLATE) was “inactive; negative”, the mutagenic call (Test System: AMES SALMONELLA TYPHIMURIUM, Strain/Indicator: TA1535, Metabolic Activation: RAT, LIVER, S-9, AROCLOR 1254, Method: STANDARD PLATE) was “inactive; negative” and the mutagenic call (Test System: AMES SALMONELLA TYPHIMURIUM, Strain/Indicator: TA1535, Metabolic Activation: RAT, LIVER, S-9, Method: STANDARD PLATE) was “inactive; negative”. The mutagenic call (Test System: AMES SALMONELLA TYPHIMURIUM, Strain/Indicator: TA1537, Metabolic Activation: HAMSTER, LIVER, S-9, AROCLOR 1254, Method: STANDARD PLATE) was “active; positive”, the mutagenic call (Test System: AMES SALMONELLA TYPHIMURIUM, Strain/Indicator: TA1537, Metabolic Activation: HAMSTER, LIVER, S-9, Method: STANDARD PLATE) was “active; positive” and the mutagenic call (Test System: AMES SALMONELLA TYPHIMURIUM, Strain/Indicator: TA1537, Metabolic Activation: MOUSE, LIVER, S-9, AROCLOR 1254, Method: STANDARD PLATE) was “active; positive”. The mutagenic call (Test System: AMES SALMONELLA TYPHIMURIUM, Strain/Indicator: TA1537, Metabolic Activation: RAT, LIVER, S-9, AROCLOR 1254, Method: STANDARD PLATE) was “active; positive”, the mutagenic call (Test System: AMES SALMONELLA TYPHIMURIUM, Strain/Indicator: TA1538, Metabolic Activation: HAMSTER, LIVER, S-9, AROCLOR 1254, Method: STANDARD PLATE) was “active; positive” and the mutagenic call (Test System: AMES SALMONELLA TYPHIMURIUM, Strain/Indicator: TA1538, Metabolic Activation: HAMSTER, LIVER, S-9, Method: STANDARD PLATE) was “active; positive”. For the same molecule, the mutagenic call (Test System: AMES SALMONELLA TYPHIMURIUM, Strain/Indicator: TA1538, Metabolic Activation: MOUSE, LIVER, S-9, AROCLOR 1254, Method: STANDARD PLATE) was “active; positive”, the mutagenic call (Test System: AMES SALMONELLA TYPHIMURIUM, Strain/Indicator: TA1538, Metabolic Activation: NONE, Method: STANDARD PLATE) was “inactive; negative” and the mutagenic call (Test System: AMES SALMONELLA TYPHIMURIUM, Strain/Indicator: TA1538, Metabolic Activation: RAT, LIVER, S-9, AROCLOR 1254, Method: STANDARD PLATE) was “active; positive”. For the same molecule, the mutagenic call (Test System: AMES SALMONELLA TYPHIMURIUM, Strain/Indicator: TA1538, Metabolic Activation: RAT, LIVER, S-9, Method: STANDARD PLATE) was “active; positive”, the mutagenic call (Test System: E. COLI, Strain/Indicator: WP2 UVRA, Metabolic Activation: HAMSTER, LIVER, S-9, AROCLOR 1254, Method: STANDARD PLATE) was “inactive; negative” and the mutagenic call (Test System: E. COLI, Strain/Indicator: WP2 UVRA, Metabolic Activation: HAMSTER, LIVER, S-9, Method: STANDARD PLATE) was “inactive; negative”. The mutagenic call (Test System: E. COLI, Strain/Indicator: WP2 UVRA, Metabolic Activation: MOUSE, LIVER, S-9, AROCLOR 1254, Method: STANDARD PLATE) was “inactive; negative”, the mutagenic call (Test System: E. COLI, Strain/Indicator: WP2 UVRA, Metabolic Activation: MOUSE, LIVER, S-9, Method: STANDARD PLATE) was “inactive; negative” and the mutagenic call (Test System: E. COLI, Strain/Indicator: WP2 UVRA, Metabolic Activation: NONE, Method: STANDARD PLATE) was “inactive; negative”. The mutagenic call (Test System: E. COLI, Strain/Indicator: WP2 UVRA, Metabolic Activation: RAT, LIVER, S-9, Method: STANDARD PLATE) was “inactive; negative”.
